Measurements taken from paper PMC7054748, “The identification and characterisation of autophagy inhibitors from the published kinase inhibitor sets” (Biochemical Journal, 2020).
Like-named read-outs stand apart in the source and are kept apart here. Values belong to the molecule of their own block, whether it stands above or below them.

What was measured:
mTOR (ULK1 pS758) = experiment: Upstream mTOR activity: ULK1 pS758 western blot in U2OS cells; format: cell-based, human
Method: (§1) U2OS (human osteosarcoma-derived) cells were cultured in DMEM supplemented with 10% foetal bovine serum, 100 U/ml Penicillin and […] L-glutamine. Cells were pre-treated with compounds at the indicated concentrations for 60 min followed by treatments with EBSS or EBSS combined with/without 50 nM Bafilomycin A1 (Enzo Life Sciences) for a further 60 or 120 min with/without inhibitors, as indicated in figures/figure legends.
(§2) Lysates were then spun at 20 000×g for 10 min and the supernatant was collected for protein content estimation using Protein Assay Dye Reagent Concentrate from Bio-Rad. 4× LDS was added to the lysate (final dilution 1×) prior to heating at 95°C for 5 min. Electrophoresis and transfer to PVDF membranes was performed using standard protocols. Membranes were blocked in 5% milk in TBS-T prior to incubation with primary antibodies (in 5% milk/TBS-T for ULK1, pS555 (human S556) ULK1, pS757 (human S758) ULK1, pS318-ATG13, ATG13, and in 5% BSA/TBS-T for LC3 and α-Tubulin) under rotation overnight at 4°C followed by washes in TBS-T and incubation with HRP-conjugated secondary antibodies (in 5% milk in TBS-T) for 60 min at room temperature. Membranes were washed in TBS-T before application of ECL reagent (GE healthcare) and development on hypersensitive X-ray films (GE healthcare) (Figures 5A, 6C and Supplementary Figure S7C) or using BIO-RAD Clarity^TM western blotting substrate (Supplementary Figure S6C and Supplementary Figure S7A) and a BIO-RAD ChemiDoc^TM imaging system.
(§3) Quantification of western blots was performed with band densitometry analysis using ImageJ. Quantification of LC3 puncta was performed using either the ITCN plugging in ImageJ or Volocity. One-way or two-way Anova (using GraphPad Prism) followed by a post-hoc test, was used for statistical analysis of western blots and immunofluorescence as indicated in figure legends.

[1] = system: kinases (human kinome panel); parameters: method as in ChEMBL database; conditions: value = the kinase inhibited over 50%; ref ChEMBL database; cited from earlier work
LC3 puncta in U2OS cells = experiment: Endogenous LC3 puncta immunofluorescence in U2OS cells; format: cell-based, human; conditions: for Enlarged/stalled LC3 puncta (autophagosomes) phenotype: 2 µM MRT68921, 5 µM others, 60 min pre-treatment then 120 min EBSS
Method: as §1
Prior to immunofluorescence, cells were grown on glass coverslips to ∼60% confluency. Cells were washed in PBS prior to fixation with 3.7% PFA/10 mM HEPES pH 7.0 at room temperature for 20 min. PFA was quenched using DMEM/10 mM HEPES pH 7.0/0.02% NaN3, followed by permeabilisation with 0.2% NP-40 in PBS for 5 min, followed by blocking with 1% BSA/PBS/0.02% NaN3. Primary antibody incubation was at room temperature for 60 min, followed by two 10-minute washes, then fluorescent secondary antibody incubation for 30 min and further washes (all in blocking buffer) before mounting onto glass slides. A wide field Nikon TS microscope was used for image capturing.
as §3

LC3 flux in U2OS cells = experiment: Autophagic flux: LC3-II western blot with/without BafA1 in U2OS cells; format: cell-based, human
Method: as §1
as §2, with “Prior to western blot analysis, cells were washed twice in ice-cold PBS and lysed in buffer containing 50 mM HEPES pH 7.4, 150 mM NaCl, 1 mM EDTA, 10% Glycerol, 0.5% NP-40, 1 mM DTT, supplemented with phosphatase inhibitors (1.15 mM sodium molybdate, 4 mM sodium tartrate, 0.01 M β-glycerophosphate, 1 mM sodium fluoride, 1 mM sodium orthovanadate) and protease inhibitor tablets (Roche) according to manufacturer's instructions. Lysates” for “Lysates”
as §3

ULK1 (pS318 ATG13) = experiment: Cellular ULK1 kinase activity: pS318 ATG13 western blot in U2OS cells; format: cell-based, human; conditions: for Cellular ULK1 inhibition compared with GW837331X and GW406108X: 2 µM MRT68921, 5 µM SBI0206965, 120 min EBSS, U2OS western blot (Supplementary Figure S6C)
Method: as §1, §2, §3

AMPK (ULK1 pS556) = experiment: Upstream AMPK activity: ULK1 pS556 western blot in U2OS cells; format: cell-based, human
Method: as §1, §2, §3

ULK1 = target: T1, ULK1 (Homo sapiens, UniProt O75385); experiment: ULK1 ADP Hunter Plus kinase activity assay; format: biochemical
T1 construct: purchased MRC PPU Reagents and Services, Dundee, Scotland
T1 sequence (O75385 1-1050): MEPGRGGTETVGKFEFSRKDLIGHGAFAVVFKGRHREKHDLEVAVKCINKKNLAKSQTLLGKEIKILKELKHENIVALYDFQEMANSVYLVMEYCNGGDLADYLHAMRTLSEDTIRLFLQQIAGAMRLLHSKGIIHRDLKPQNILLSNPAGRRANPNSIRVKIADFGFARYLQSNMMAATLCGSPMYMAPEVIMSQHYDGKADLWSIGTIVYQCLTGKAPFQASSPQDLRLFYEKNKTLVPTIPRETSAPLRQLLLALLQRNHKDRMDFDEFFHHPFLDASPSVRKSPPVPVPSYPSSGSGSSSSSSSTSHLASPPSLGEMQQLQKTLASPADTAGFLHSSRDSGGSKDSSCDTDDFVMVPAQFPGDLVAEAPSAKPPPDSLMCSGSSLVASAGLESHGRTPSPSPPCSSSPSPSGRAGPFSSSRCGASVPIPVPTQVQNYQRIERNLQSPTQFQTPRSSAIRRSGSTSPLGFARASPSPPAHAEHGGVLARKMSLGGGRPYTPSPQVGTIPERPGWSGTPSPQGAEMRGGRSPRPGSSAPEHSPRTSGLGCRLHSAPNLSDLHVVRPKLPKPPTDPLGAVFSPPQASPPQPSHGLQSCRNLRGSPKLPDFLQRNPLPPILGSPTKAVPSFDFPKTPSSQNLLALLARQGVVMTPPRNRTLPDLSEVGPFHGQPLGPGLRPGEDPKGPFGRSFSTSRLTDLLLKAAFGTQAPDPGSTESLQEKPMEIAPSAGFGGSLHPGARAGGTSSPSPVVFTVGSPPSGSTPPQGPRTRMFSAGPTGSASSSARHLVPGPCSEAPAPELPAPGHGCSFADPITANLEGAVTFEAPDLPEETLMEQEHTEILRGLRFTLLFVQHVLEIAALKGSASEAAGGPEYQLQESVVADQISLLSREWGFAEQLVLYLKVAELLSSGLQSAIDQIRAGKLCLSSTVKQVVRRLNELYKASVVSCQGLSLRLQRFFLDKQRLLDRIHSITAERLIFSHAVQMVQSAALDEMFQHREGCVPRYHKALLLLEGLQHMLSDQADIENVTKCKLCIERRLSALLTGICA

AMPK α1β2ɣ1 = AMPK α1β2ɣ1 (Homo sapiens, UniProt O43741+P54619+Q13131); experiment: AMPK ADP Hunter Plus kinase activity assay
Sequence of AMPK α1β2ɣ1 (Q13131 whole entry): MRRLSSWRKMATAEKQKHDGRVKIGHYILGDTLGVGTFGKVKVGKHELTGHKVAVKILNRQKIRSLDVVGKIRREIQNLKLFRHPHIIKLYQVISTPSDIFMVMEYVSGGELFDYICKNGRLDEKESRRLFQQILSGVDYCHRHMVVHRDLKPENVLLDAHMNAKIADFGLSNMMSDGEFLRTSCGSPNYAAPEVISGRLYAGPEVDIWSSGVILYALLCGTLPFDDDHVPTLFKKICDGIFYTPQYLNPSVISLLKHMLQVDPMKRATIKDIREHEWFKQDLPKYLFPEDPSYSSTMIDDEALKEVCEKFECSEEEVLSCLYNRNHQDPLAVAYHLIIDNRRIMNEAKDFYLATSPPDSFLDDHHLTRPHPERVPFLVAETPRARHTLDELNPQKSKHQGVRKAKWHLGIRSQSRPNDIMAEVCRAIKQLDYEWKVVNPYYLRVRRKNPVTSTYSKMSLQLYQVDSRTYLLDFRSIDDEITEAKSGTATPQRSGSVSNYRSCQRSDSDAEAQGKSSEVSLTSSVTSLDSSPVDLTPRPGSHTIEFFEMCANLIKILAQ
Sequence of AMPK α1β2ɣ1 (O43741 whole entry partner): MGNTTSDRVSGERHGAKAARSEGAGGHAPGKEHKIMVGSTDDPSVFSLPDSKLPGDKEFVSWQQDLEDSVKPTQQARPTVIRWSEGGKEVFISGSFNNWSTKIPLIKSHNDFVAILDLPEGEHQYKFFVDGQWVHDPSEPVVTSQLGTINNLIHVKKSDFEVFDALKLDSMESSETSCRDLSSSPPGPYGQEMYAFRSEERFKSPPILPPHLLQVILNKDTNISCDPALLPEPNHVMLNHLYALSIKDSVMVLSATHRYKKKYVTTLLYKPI
Sequence of AMPK α1β2ɣ1 (P54619 whole entry partner): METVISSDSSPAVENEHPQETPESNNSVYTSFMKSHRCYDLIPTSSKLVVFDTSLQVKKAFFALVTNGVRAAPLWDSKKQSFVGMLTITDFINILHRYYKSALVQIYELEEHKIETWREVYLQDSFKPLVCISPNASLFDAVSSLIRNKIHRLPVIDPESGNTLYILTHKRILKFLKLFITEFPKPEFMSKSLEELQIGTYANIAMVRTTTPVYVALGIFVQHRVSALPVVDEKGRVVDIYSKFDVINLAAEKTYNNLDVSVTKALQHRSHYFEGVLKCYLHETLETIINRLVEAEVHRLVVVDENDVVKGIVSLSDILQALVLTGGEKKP

VPS34 = VPS34 (Homo sapiens, UniProt Q8NEB9); experiment: VPS34 ADP Hunter Plus kinase activity assay; conditions: IC50 against VPS34, resynthesized samples; mean potency in parenthesis, n = 5
Sequence of VPS34 (Q8NEB9 whole entry): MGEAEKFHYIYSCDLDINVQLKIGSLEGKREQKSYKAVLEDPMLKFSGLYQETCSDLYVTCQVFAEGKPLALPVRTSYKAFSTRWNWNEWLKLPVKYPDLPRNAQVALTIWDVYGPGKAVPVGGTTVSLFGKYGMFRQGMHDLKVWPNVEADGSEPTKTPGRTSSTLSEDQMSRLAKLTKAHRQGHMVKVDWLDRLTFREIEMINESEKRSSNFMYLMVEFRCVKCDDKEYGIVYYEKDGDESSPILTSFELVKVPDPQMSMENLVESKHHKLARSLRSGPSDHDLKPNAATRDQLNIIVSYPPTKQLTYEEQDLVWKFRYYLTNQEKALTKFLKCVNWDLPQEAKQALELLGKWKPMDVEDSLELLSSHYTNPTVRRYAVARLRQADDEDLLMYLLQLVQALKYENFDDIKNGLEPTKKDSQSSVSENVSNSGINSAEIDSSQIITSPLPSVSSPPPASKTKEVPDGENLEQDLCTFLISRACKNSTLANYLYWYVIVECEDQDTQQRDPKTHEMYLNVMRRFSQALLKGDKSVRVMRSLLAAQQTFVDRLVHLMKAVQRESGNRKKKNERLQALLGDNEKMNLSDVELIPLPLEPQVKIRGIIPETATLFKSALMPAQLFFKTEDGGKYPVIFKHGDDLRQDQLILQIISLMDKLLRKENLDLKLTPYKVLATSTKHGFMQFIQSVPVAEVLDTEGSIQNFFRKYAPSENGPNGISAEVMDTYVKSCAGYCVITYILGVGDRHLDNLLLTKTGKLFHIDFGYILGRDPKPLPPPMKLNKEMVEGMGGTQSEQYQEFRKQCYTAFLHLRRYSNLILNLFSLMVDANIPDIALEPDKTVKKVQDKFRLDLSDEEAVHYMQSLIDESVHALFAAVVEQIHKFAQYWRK

[2] = 100 nM (VPS34-IN1 500 nM), 60 min pre-treatment, ± EBSS 60 min

IC50 (ULK1; original PKIS samples, concentration-dependent retest of screen hits, read-out: pIC50 against ULK1 (converted)): < 1000 nM
IC50 (ULK1; resynthesized samples, mean potency in parenthesis, n = 5, read-out: IC50 against ULK1 (converted)): 646 nM
Mechanism of inhibition of ULK1 with respect to ATP (ULK1; varying ATP below 600 µM, Michaelis–Menten and Lineweaver–Burk plots): primarily ATP competitive inhibition
Mechanism of inhibition of ULK1 with respect to MBP (ULK1; varying MBP substrate): clear non-competitive inhibition
IC50 (AMPK α1β2ɣ1): 2340 nM
IC50 (VPS34): > 100000 nM
Compound: COc1cc(Nc2ncc3c(C)nc(-c4cccc(C(F)(F)F)c4)n3n2)cc(OC)c1OC [GW837331X]
Effect on mTOR activity (ULK1 pS758 levels) (mTOR (ULK1 pS758); 5 µM): without affecting mTOR or AMPK activity
Kinases that are inhibited over 50% (descending order) [1]: NEK9 and PLK1 and FMS and SRC and MELK and EphB2 and EphA4
Enlarged/stalled LC3 puncta (autophagosomes) phenotype (LC3 puncta in U2OS cells): did not show this phenotype
Effect on EBSS-induced increase in LC3 puncta formation (LC3 puncta in U2OS cells; 5 µM, EBSS): abolished
Effect on starvation-induced LC3 flux (LC3 flux in U2OS cells; 5 µM, 60 min pre-treatment then 60 min EBSS ± 50 nM BafA1, U2OS): significantly blocked
Effect on starvation-induced increase in pS318 ATG13 (ULK1 (pS318 ATG13); 5 µM, 60 min pre-treatment then 60 min EBSS, U2OS): significantly reduced
Effect on AMPK activity (ULK1 pS556 levels) (AMPK (ULK1 pS556); 5 µM): without affecting mTOR or AMPK activity

Compound: CN1CCc2cc(Nc3ncc(C4CC4)c(NCCCNC(=O)C4CCC4)n3)ccc2C1 [MRT68921, reference compound]
Enlarged/stalled LC3 puncta (autophagosomes) phenotype (LC3 puncta in U2OS cells): larger than those formed with EBSS alone
Cellular ULK1 inhibition compared with GW837331X and GW406108X (ULK1 (pS318 ATG13)): inhibited ULK1 more potently

Compound: CNC(=O)c1ccccc1Oc1nc(Nc2cc(OC)c(OC)c(OC)c2)ncc1Br [SBI0206965, reference compound]
Enlarged/stalled LC3 puncta (autophagosomes) phenotype (LC3 puncta in U2OS cells): larger than those formed with EBSS alone
Cellular ULK1 inhibition compared with GW837331X and GW406108X (ULK1 (pS318 ATG13)): inhibited ULK1 more potently

Compound: CC(C)(O)CNc1ncc(-c2ccnc(Nc3ccnc(Cl)c3)n2)c(CC2CC2)n1 [VPS34-IN1, reference compound]
Effect on mTORC1 activity (pS758 ULK1) (mTOR (ULK1 pS758); [2]): unaffected
Concentration blocking EBSS-induced autophagy (LC3) flux (LC3 flux in U2OS cells; U2OS, EBSS + 50 nM BafA1, as low as, greater effect at 100 nM): ≤ 10 nM
Effect on AMPK activity (pS556 ULK1) (AMPK (ULK1 pS556); [2]): unaffected
